Results reported in patent publication US11970497B2, “Tricyclic AKR1C3 dependent KARS inhibitors” (Novartis AG, priority 2019, dated 2024).

Tests used:
NCI-H358 = assay: Expanded lung cancer cell line proliferation assay; type: cell-based; conditions: Homo sapiens; NCI-H358, 72 h, average of PrestoBlue and Cell Titer Glo; AKR1C3 5.6 TPM; read-out: Absolute Qualified AC50
In short: (§1)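 Cells grown in RPMI-1640/10% FBS were seeded at 1000–2000 cells/well, incubated overnight, then exposed for 72 h at 37 °C to an 8-point, 1:3.16 dilution series topping at 1 μM final. Proliferation was read by multiplexed PrestoBlue fluorescence and CellTiter-Glo luminescence, with values the average of both readouts.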

VMRC-LCD = assay: Expanded lung cancer cell line proliferation assay; type: cell-based; conditions: 72 h, average of PrestoBlue and Cell Titer Glo, AKR1C3 expression: no data available, read-out: Absolute Qualified AC50
In short: as §1

NCI-H1437 = assay: Expanded lung cancer cell line proliferation assay; type: cell-based; conditions: Homo sapiens; NCI-H1437, 72 h, average of PrestoBlue and Cell Titer Glo; AKR1C3 2720.8 TPM; read-out: Absolute Qualified AC50
In short: as §1

CORL-279 = assay: Expanded lung cancer cell line proliferation assay; type: cell-based; conditions: Homo sapiens, COR-L279; CORL-279, 72 h, average of PrestoBlue and Cell Titer Glo; AKR1C3 3.6 TPM; read-out: Absolute Qualified AC50
In short: as §1

NCI-H524 = assay: Expanded lung cancer cell line proliferation assay; type: cell-based; conditions: Homo sapiens; NCI-H524, 72 h, average of PrestoBlue and Cell Titer Glo; AKR1C3 0.8 TPM; read-out: Absolute Qualified AC50
In short: as §1

DMS-53 = assay: Expanded lung cancer cell line proliferation assay; type: cell-based; conditions: Homo sapiens; DMS-53, 72 h, average of PrestoBlue and Cell Titer Glo; AKR1C3 59.7 TPM; read-out: Absolute Qualified AC50
In short: as §1

HCC-44 = assay: Expanded lung cancer cell line proliferation assay; type: cell-based; conditions: Homo sapiens, HCC44; HCC-44, 72 h, average of PrestoBlue and Cell Titer Glo; AKR1C3 134.3 TPM; read-out: Absolute Qualified AC50
In short: as §1

NCI-H1792 = assay: Expanded lung cancer cell line proliferation assay; type: cell-based; conditions: Homo sapiens; NCI-H1792, 72 h, average of PrestoBlue and Cell Titer Glo; AKR1C3 418.6 TPM; read-out: Absolute Qualified AC50
In short: as §1

NCI-H226 = assay: Expanded lung cancer cell line proliferation assay; type: cell-based; conditions: Homo sapiens; NCI-H226, 72 h, average of PrestoBlue and Cell Titer Glo; AKR1C3 2.9 TPM; read-out: Absolute Qualified AC50
In short: as §1

[1] = tested on: NCI-H1944 (KEAP1 mutant, AKR1C3 expressing) cell line derived lung cancer xenografts; assay: PK/PD in NCI-H1944 xenograft (tumor DDIT3 and EGR1 mRNA induction); type: in vivo, mice; conditions: single oral administration
Protocol: Compound 40 Dose Dependent Pharmacokinetics and Pharmacodynamic (PK/PD) Changes in the KEAP1 Mutant AKR1C3 Expressing Human Lung Cancer Xenograft NCI-H1944
The PK/PD relationship of Compound 40 was assessed in nude mice with established subcutaneous NCI-H1944 (KEAP1 mutant, AKR1C3 expressing) cell line derived lung cancer xenografts (FIG. 2). After a single oral administration of Compound 40, blood and tumor were collected to explore the PK profile of Compound 40 levels in blood and tumor. Compound 152, the active metabolite of the prodrug Compound 40 that inhibits KARS was also measured in tumor and blood. The PK data were compared to the tumor PD marker readouts of DDIT3 and EGR1 mRNA induction, downstream transcriptional readouts of KARS inhibition.

CN1c2ccc(F)cc2C(=O)CC12CCN(C(=O)NCc1ccc(F)c(NCCO)c1)CC2 [Example 36, 6′-fluoro-N-(4-fluoro-3-((2-hydroxyethyl)amino)benzyl)-1′-methyl-4′-oxo-3′,4′-dihydro-1′H-spiro[piperidine-4,2′-quinoline]-1-carboxamide]
AC50 (NCI-H358): > 1000 nM | AC50 (VMRC-LCD): 474 nM | AC50 (NCI-H1437): 257 nM | AC50 (CORL-279): > 1000 nM | AC50 (NCI-H524): > 1000 nM | AC50 (DMS-53): > 1000 nM | AC50 (HCC-44): 705 nM | AC50 (NCI-H1792): 553 nM | AC50 (NCI-H226): > 1000 nM

O=C1CC2(CCN(C(=O)NCc3ccc(F)cc3)CC2)Nc2ccc(F)cc21 [Example 40]
AC50 (NCI-H358): > 1000 nM | AC50 (VMRC-LCD): 330 nM | AC50 (NCI-H1437): 68 nM | AC50 (CORL-279): > 1000 nM | AC50 (NCI-H524): > 1000 nM | AC50 (DMS-53): > 1000 nM | AC50 (HCC-44): 440 nM | AC50 (NCI-H1792): 196 nM | AC50 (NCI-H226): > 1000 nM | duration of the induction of DDIT3 and EGR1 mRNA levels ([1]; dose escalation, NCI-H1944 xenografts): increased with dose escalation | tumor PD markers (DDIT3 and EGR1 mRNA induction) after dosing ([1]; nude mice with NCI-H1944 xenografts): remained elevated for 24 hours post-dose
